Assay results reported in ChEMBL document CHEMBL4725353, “Discovery of Pyrido[2,3-b]indole Derivatives with Gram-Negative Activity Targeting Both DNA Gyrase and Topoisomerase IV” (J Med Chem, 2020).
Values after ≈ are worked out from the molar mass of the structure shown.

Columns and labels:
physchem [1] = experiment: physchem
Description: Ionization constant (acid), pKa of the compound by photometric titration assay

Escherichia coli [2] = experiment: microbe, parasite or virus in culture; conditions: ATCC 25922
Description: Antibacterial activity against Escherichia coli ATCC 25922 assessed as reduction in microbial growth preincubated for 20 to 24 hrs followed by subculture in absence of compound and measured on day 4 CLSI based broth microdilution susceptibility method

Escherichia coli [3] = experiment: microbe, parasite or virus in culture; conditions: ATCC 29213
Description: Antibacterial activity against Escherichia coli ATCC 29213 assessed as reduction in microbial growth preincubated for 20 to 24 hrs followed by subculture in absence of compound and measured on day 4 CLSI based broth microdilution susceptibility method

[4] = Dissociation constant, pKa of compound by photometric titration assay; type: physicochemical
[5] = Distribution coefficient between octanol and buffer, log D of the compound in pH 7.4 buffer by CAMDIS assay; type: physicochemical
physchem [6] = conditions: PBS, pH 6.5
Description: Solubility of compound in PBS at pH 6.5 incubated for over night by HPLC-UV based lyophilization solubility assay

in vitro = conditions: mouse, liver microsomes
Description: Intrinsic clearance in mouse liver microsomes preincubated for 10 mins followed by NADPH regenerating system addition and measured up to 30 mins by LC/MS-MS analysis

Klebsiella pneumoniae [7] = experiment: Antibacterial activity against Klebsiella pneumoniae ATCC BAA-2146 assessed as reduction in microbial growth preincubated for 20 to 24 hrs followed by subculture in absence of compound and measured on day 4 CLSI based broth microdilution susceptibility method; type: functional; conditions: time hrs 20-24
Acinetobacter baumannii [8] = experiment: Antibacterial activity against Acinetobacter baumannii ATCC BAA-747 assessed as reduction in microbial growth preincubated for 20 to 24 hrs followed by subculture in absence of compound and measured on day 4 CLSI based broth microdilution susceptibility method; type: functional; conditions: time hrs 20-24
Pseudomonas aeruginosa [9] = experiment: Antibacterial activity against Pseudomonas aeruginosa ATCC 27853 assessed as reduction in microbial growth preincubated for 20 to 24 hrs followed by subculture in absence of compound and measured on day 4 CLSI based broth microdilution susceptibility method; type: functional; conditions: time hrs 20-24
Acinetobacter baumannii [10] = experiment: Antibacterial activity against Acinetobacter baumannii ATCC 51432 assessed as reduction in microbial growth preincubated for 20 to 24 hrs followed by subculture in absence of compound and measured on day 4 CLSI based broth microdilution susceptibility method; type: functional; conditions: time hrs 20-24
Klebsiella pneumoniae [11] = experiment: Antibacterial activity against Klebsiella pneumoniae ATCC 10031 assessed as reduction in microbial growth preincubated for 20 to 24 hrs followed by subculture in absence of compound and measured on day 4 CLSI based broth microdilution susceptibility method; type: functional; conditions: time hrs 20-24
Escherichia coli [12] = experiment: Antibacterial activity against Escherichia coli ATCC BAA-2340 assessed as reduction in microbial growth preincubated for 20 to 24 hrs followed by subculture in absence of compound and measured on day 4 CLSI based broth microdilution susceptibility method; type: functional; conditions: time hrs 20-24
Escherichia coli [13] = experiment: Antibacterial activity against Escherichia coli ATCC 35218 assessed as reduction in microbial growth preincubated for 20 to 24 hrs followed by subculture in absence of compound and measured on day 4 CLSI based broth microdilution susceptibility method; type: functional; conditions: time hrs 20-24
Klebsiella pneumoniae [14] = experiment: Antibacterial activity against Klebsiella pneumoniae ATCC 700603 assessed as reduction in microbial growth preincubated for 20 to 24 hrs followed by subculture in absence of compound and measured on day 4 CLSI based broth microdilution susceptibility method; type: functional; conditions: time hrs 20-24
Pseudomonas aeruginosa [15] = experiment: Antibacterial activity against Pseudomonas aeruginosa ATCC BAA-2113 assessed as reduction in microbial growth preincubated for 20 to 24 hrs followed by subculture in absence of compound and measured on day 4 CLSI based broth microdilution susceptibility method; type: functional; conditions: time hrs 20-24
Pseudomonas aeruginosa [16] = experiment: Antibacterial activity against Pseudomonas aeruginosa PAO1 assessed as reduction in microbial growth preincubated for 20 to 24 hrs followed by subculture in absence of compound and measured on day 4 CLSI based broth microdilution susceptibility method; type: functional; conditions: time hrs 20-24
Acinetobacter baumannii [17] = experiment: Antibacterial activity against Acinetobacter baumannii ATCC 19606 assessed as reduction in microbial growth preincubated for 20 to 24 hrs followed by subculture in absence of compound and measured on day 4 CLSI based broth microdilution susceptibility method; type: functional; conditions: time hrs 20-24

SMILES	pKa (physchem [1])	MIC (Escherichia coli [2]) [µg/mL]	MIC (Escherichia coli [3]) [µg/mL]	logD [5]	other results
CCNc1cc(F)cc2c1[nH]c1ncc(-c3cnc(NC4CNC4)nc3)c(-n3ccc(C(F)(F)F)n3)c12	9.35	4 (≈ 7.82 µM)	< 0.25		
CCNc1cc(F)cc2c1[nH]c1ncc(-c3cncc(CC(=O)O)c3)c(-n3ccc(C(F)(F)F)n3)c12		> 8	0.25 (≈ 0.502 µM)	2.02	pKa [4]: 3.51
CCNc1cc(F)cc2c1[nH]c1ncc(-c3cnc(OC4CCNCC4)nc3)c(-n3ccc(C(F)(F)F)n3)c12	9.06	1 (≈ 1.85 µM)	0.63 (≈ 1.17 µM)		
CCNc1cc(F)cc2c1[nH]c1ncc(-c3cnc4c(c3)c(=O)c(C(=O)O)cn4C)c(-n3ccc(C(F)(F)F)n3)c12		1 (≈ 1.77 µM)	< 0.125	2.54	
CCNc1cc(F)cc2c1[nH]c1ncc(-c3cnc(N)nc3)c(-n3ccc(C(F)(F)F)n3)c12	4.39	1 (≈ 2.19 µM)	0.63 (≈ 1.38 µM)		solubility (physchem [6]): 7.6 µg/mL (≈ 16.7 µM); CLint scaled at 0.5 h (in vitro): 25.9 mL/min/kg
CCNc1cc(F)cc2c1[nH]c1ncc(-c3cncc(C(=O)NO)c3)c(-n3ccc(C(F)(F)F)n3)c12		2 (≈ 4 µM)	< 0.125	3.05	
CCNc1cc(F)cc2c1[nH]c1ncc(-c3cncc(C(N)=O)c3)c(-n3ccc(C(F)(F)F)n3)c12		0.5 (≈ 1.03 µM)	< 0.016	3.25	MIC (Klebsiella pneumoniae [7]): 3.02 µg/mL; MIC (Acinetobacter baumannii [8]): 3.02 µg/mL; MIC (Pseudomonas aeruginosa [9]): 0.76 µg/mL; MIC (Acinetobacter baumannii [10]): 3.02 µg/mL; MIC (Klebsiella pneumoniae [11]): 0.09 µg/mL; MIC (Escherichia coli [12]): 0.76 µg/mL; MIC (Escherichia coli [13]): 0.76 µg/mL; MIC (Klebsiella pneumoniae [14]): 0.76 µg/mL; MIC (Pseudomonas aeruginosa [15]): 0.76 µg/mL; MIC (Pseudomonas aeruginosa [16]): 2 µg/mL; MIC (Acinetobacter baumannii [17]): 0.76 µg/mL
CCNc1cc(F)cc2c1[nH]c1ncc(-c3cncc(CO)c3)c(-n3ccc(C(F)(F)F)n3)c12		0.5 (≈ 1.06 µM)	< 0.016	3.56	MIC (Klebsiella pneumoniae [7]): > 23.5 µg/mL; MIC (Acinetobacter baumannii [8]): > 23.5 µg/mL; MIC (Pseudomonas aeruginosa [9]): > 23.5 µg/mL; MIC (Acinetobacter baumannii [10]): > 23.5 µg/mL; MIC (Klebsiella pneumoniae [11]): 0.183 µg/mL; MIC (Escherichia coli [12]): 1.47 µg/mL; MIC (Escherichia coli [13]): 1.47 µg/mL; MIC (Klebsiella pneumoniae [14]): 1.47 µg/mL; MIC (Pseudomonas aeruginosa [15]): 1.47 µg/mL; MIC (Pseudomonas aeruginosa [16]): 4 µg/mL; MIC (Acinetobacter baumannii [17]): 73 µg/mL
CCNc1cc(F)cc2c1[nH]c1ncc(-c3cncc(N4CCOCC4)c3)c(-n3ccc(C(F)(F)F)n3)c12		1 (≈ 1.9 µM)	< 0.25	3.64	
CCNc1cc(F)cc2c1[nH]c1ncc(-c3cncc(CN)c3)c(-n3ccc(C(F)(F)F)n3)c12	8.62	1 (≈ 2.13 µM)	< 0.25	2.94	
CCNc1cc(F)cc2c1[nH]c1ncc(-c3cncc(N4CCNCC4)c3)c(-n3ccc(C(F)(F)F)n3)c12		8 (≈ 15.3 µM)	0.5 (≈ 0.953 µM)	2.8	
CCNc1cc(F)cc2c1[nH]c1ncc(-c3cncc(Cc4n[nH]c(=O)o4)c3)c(-n3ccc(C(F)(F)F)n3)c12		0.73 (≈ 1.36 µM)	< 0.056	3.38	
CCNc1cc(F)cc2c1[nH]c1ncc(-c3cnc(NC4CCNCC4)nc3)c(-n3ccc(C(F)(F)F)n3)c12	9.52	1 (≈ 1.85 µM)	0.63 (≈ 1.17 µM)		solubility (physchem [6]): 7.6 µg/mL (≈ 14.1 µM); CLint scaled at 0.5 h (in vitro): 57.9 mL/min/kg
CCNc1cc(F)cc2c1[nH]c1ncc(-c3cncc(Cc4nnn[nH]4)c3)c(-n3ccc(C(F)(F)F)n3)c12		> 11.4	0.444 (≈ 0.85 µM)	1.93	pKa [4]: 4.78
